Data: ChEMBL document CHEMBL3244266, “Potential antiarthritic agents. 2. Benzoylacetonitriles and beta-aminocinnamonitriles” (J Med Chem, 1979)
Active and inactive are the calls of the source. The calls are words filed in the database; no cut-off is given here.

How the values were obtained:
Rattus norvegicus [1] = experiment: Antiinflammatory activity against adjuvant-induced arthritis rat model assessed as inhibition of swelling at 0.5 mg/kg, po measured on day 21 (reference value: 0%); type: functional; settings: 504 h
Rattus norvegicus [2] = experiment: Antiinflammatory activity against adjuvant-induced arthritis rat model assessed as inhibition of swelling at 1 mg/kg, po measured on day 14 (reference value: 0%); type: functional; settings: 336 h
Rattus norvegicus [3] = experiment: Antiinflammatory activity against adjuvant-induced arthritis rat model assessed as inhibition of swelling at 2 mg/kg, po measured on day 21 (reference value: 0%); type: functional; settings: 504 h
Rattus norvegicus [4] = experiment: Antiinflammatory activity against adjuvant-induced arthritis rat model assessed as inhibition of swelling at 2 mg/kg, po measured on day 14 (reference value: 0%); type: functional; settings: 336 h
Rattus norvegicus [5] = experiment: Antiinflammatory activity against adjuvant-induced arthritis rat model assessed as inhibition of swelling at 1 mg/kg, po measured on day 21 (reference value: 0%); type: functional; settings: 504 h
Rattus norvegicus [6] = experiment: Antiinflammatory activity against adjuvant-induced arthritis rat model assessed as inhibition of swelling at 0.5 mg/kg, po measured on day 14 (reference value: 0%); type: functional; settings: 336 h
Rattus norvegicus [7] = experiment: Antiinflammatory activity against carrageenin-induced edema in rat; type: functional, organism-based
Rattus norvegicus [8] = organism: Rattus norvegicus; experiment: Antiinflammatory activity against adjuvant-induced arthritis in rat assessed as inhibition of swelling; type: functional, organism-based
Plasma = experiment: Drug recovery in rat plasma assessed as total radioactivity at 50 mg/kg, po measured over 7-day period by TLC/HPLC analysis; type: ADME, organism-based; parameters: dose 50 mg/kg, route oral; settings: in vivo
[9] = Drug recovery in rat urine assessed as total radioactivity at 50 mg/kg, po measured after 24 hrs by TLC/HPLC analysis; type: ADME, organism-based; parameters: dose 50 mg/kg, route oral; settings: in vivo
Rattus norvegicus [10] = experiment: Antiinflammatory activity against adjuvant-induced arthritis rat model assessed as inhibition of swelling at 100 mg/kg, po measured on day 14 (reference value: 0%); type: functional; settings: 336 h
Rattus norvegicus [11] = experiment: Ulcerogenicity in rat at 800 mg/kg administered daily; type: toxicity, organism-based; parameters: dose 800 mg/kg; settings: in vivo
Rattus norvegicus [12] = experiment: Antiinflammatory activity against adjuvant-induced arthritis rat model assessed as inhibition of swelling at 50 mg/kg, po measured on day 21 (reference value: 0%); type: functional; settings: 504 h
Cavia porcellus [13] = organism: Cavia porcellus; experiment: Antiinflammatory activity against UV-induced erythema in guinea pig; type: functional, organism-based
Rattus norvegicus [14] = experiment: Antiinflammatory activity against adjuvant-induced arthritis rat model assessed as inhibition of swelling at 50 mg/kg, po measured on day 14 (reference value: 0%); type: functional; settings: 336 h
Rattus norvegicus [15] = experiment: Antiinflammatory activity against adjuvant-induced arthritis rat model assessed as inhibition of swelling at 25 mg/kg, po measured on day 21 (reference value: 0%); type: functional; settings: 504 h
Rattus norvegicus [16] = experiment: Antiinflammatory activity against adjuvant-induced arthritis rat model assessed as inhibition of swelling at 25 mg/kg, po measured on day 14 (reference value: 0%); type: functional; settings: 336 h
Rattus norvegicus [17] = experiment: Antiinflammatory activity against adjuvant-induced arthritis rat model assessed as inhibition of swelling at 100 mg/kg, po measured on day 21 (reference value: 0%); type: functional; settings: 504 h
Cavia porcellus [18] = organism: Cavia porcellus; experiment: Inhibition of prostaglandin synthetase in guinea pig lung assessed as net production of prostaglandin-like activity; settings: tested as the 14C-labelled form
Rattus norvegicus [19] = experiment: Antiinflammatory activity against adjuvant-induced arthritis rat model assessed as inhibition of swelling at 200 mg/kg, po measured on day 14 (reference value: 0%); type: functional; settings: 336 h
Rattus norvegicus [20] = experiment: Antiinflammatory activity against adjuvant-induced arthritis rat model assessed as inhibition of swelling at 200 mg/kg, po measured on day 21 (reference value: 0%); type: functional; settings: 504 h
[21] = tested as the 14C-labelled form

COc1ccc2c(c1)c(CC(=O)O)c(C)n2C(=O)c1ccc(Cl)cc1 [INDOMETHACIN]
inhibition in vivo at 0.5 mg/kg (Rattus norvegicus [1]): 20%
inhibition in vivo at 1 mg/kg (Rattus norvegicus [2]): 46%
inhibition in vivo at 2 mg/kg (Rattus norvegicus [3]): 24%
inhibition in vivo at 2 mg/kg (Rattus norvegicus [4]): 68%
inhibition in vivo at 1 mg/kg (Rattus norvegicus [5]): 19%
inhibition in vivo at 0.5 mg/kg (Rattus norvegicus [6]): 40%

O=C(O)CNC(=O)c1ccccc1
Activity (Rattus norvegicus [7]; [21]): inactive
Activity (Rattus norvegicus [8]; [21]): inactive

N#C/C=C(\N)c1cccc(F)c1
Activity (Rattus norvegicus [8]): Active

N#CC[14C](=O)c1ccccc1
Drug recovery (Plasma): 93.3%
Drug recovery [9]: 81.7%

N#CCC(=O)c1ccsc1
inhibition in vivo at 100 mg/kg (Rattus norvegicus [10]): 46%
Activity (Rattus norvegicus [11]): Non-toxic
inhibition in vivo at 50 mg/kg (Rattus norvegicus [12]): 40%
Activity (Rattus norvegicus [7]): inactive
Activity (Cavia porcellus [13]): inactive
inhibition in vivo at 50 mg/kg (Rattus norvegicus [14]): 55%
inhibition in vivo at 25 mg/kg (Rattus norvegicus [15]): 31%
inhibition in vivo at 25 mg/kg (Rattus norvegicus [16]): 52%
inhibition in vivo at 100 mg/kg (Rattus norvegicus [17]): 29%

N#CCC(=O)c1ccccc1
inhibition in vivo at 100 mg/kg (Rattus norvegicus [10]): 63%
Activity (Rattus norvegicus [11]): Non-toxic
inhibition in vivo at 50 mg/kg (Rattus norvegicus [12]): 42%
Activity (Rattus norvegicus [7]): inactive
Activity (Cavia porcellus [13]): inactive
inhibition in vivo at 50 mg/kg (Rattus norvegicus [14]): 51%
inhibition in vivo at 25 mg/kg (Rattus norvegicus [15]): 33%
inhibition in vivo at 25 mg/kg (Rattus norvegicus [16]): 54%
inhibition (Cavia porcellus [18]): Active
inhibition in vivo at 100 mg/kg (Rattus norvegicus [17]): 48%

N#CCC(=O)c1ccccc1F
inhibition in vivo at 100 mg/kg (Rattus norvegicus [10]): 63%
Activity (Rattus norvegicus [11]): Non-toxic
inhibition in vivo at 50 mg/kg (Rattus norvegicus [12]): 42%
Activity (Rattus norvegicus [7]): inactive
Activity (Cavia porcellus [13]): inactive
inhibition in vivo at 50 mg/kg (Rattus norvegicus [14]): 51%
inhibition in vivo at 25 mg/kg (Rattus norvegicus [15]): 33%
inhibition in vivo at 25 mg/kg (Rattus norvegicus [16]): 54%
inhibition in vivo at 100 mg/kg (Rattus norvegicus [17]): 48%

O=C(O)CC(=O)c1ccccc1
Activity (Rattus norvegicus [7]; [21]): inactive
Activity (Rattus norvegicus [8]; [21]): inactive

N#CCC(=O)c1ccc(F)cc1
inhibition in vivo at 100 mg/kg (Rattus norvegicus [10]): 46%
Activity (Rattus norvegicus [11]): Non-toxic
inhibition in vivo at 50 mg/kg (Rattus norvegicus [12]): 37%
Activity (Rattus norvegicus [7]): inactive
Activity (Cavia porcellus [13]): inactive
inhibition in vivo at 50 mg/kg (Rattus norvegicus [14]): 56%
inhibition in vivo at 25 mg/kg (Rattus norvegicus [15]): 17%
inhibition in vivo at 25 mg/kg (Rattus norvegicus [16]): 33%
inhibition in vivo at 100 mg/kg (Rattus norvegicus [17]): 32%

N#CCC(O)c1ccccc1 (centres undefined)
Activity (Rattus norvegicus [7]; [21]): inactive
Activity (Rattus norvegicus [8]; [21]): inactive

N#C/C=C(\N)c1ccc(F)cc1
inhibition in vivo at 100 mg/kg (Rattus norvegicus [10]): 53%
Activity (Rattus norvegicus [11]): Non-toxic
inhibition in vivo at 50 mg/kg (Rattus norvegicus [12]): 25%
Activity (Rattus norvegicus [7]): inactive
Activity (Cavia porcellus [13]): inactive
inhibition in vivo at 50 mg/kg (Rattus norvegicus [14]): 43%
inhibition in vivo at 25 mg/kg (Rattus norvegicus [15]): 14%
inhibition in vivo at 25 mg/kg (Rattus norvegicus [16]): 26%
inhibition in vivo at 100 mg/kg (Rattus norvegicus [17]): 29%

O=C(O)C(O)C(O)c1ccccc1 (centres undefined)
Activity (Rattus norvegicus [7]; [21]): inactive
Activity (Rattus norvegicus [8]; [21]): inactive

N#C/C=C(\N)c1ccccc1
inhibition in vivo at 100 mg/kg (Rattus norvegicus [10]): 65%
inhibition in vivo at 50 mg/kg (Rattus norvegicus [12]): 52%
Activity (Rattus norvegicus [7]): Active
Activity (Cavia porcellus [13]): Active
inhibition in vivo at 50 mg/kg (Rattus norvegicus [14]): 58%
inhibition in vivo at 25 mg/kg (Rattus norvegicus [15]): 25%
inhibition in vivo at 25 mg/kg (Rattus norvegicus [16]): 39%
inhibition in vivo at 100 mg/kg (Rattus norvegicus [17]): 54%

N#C/C=C(\N)c1cccs1
inhibition in vivo at 100 mg/kg (Rattus norvegicus [10]): 49%
Activity (Rattus norvegicus [11]): Non-toxic
inhibition in vivo at 50 mg/kg (Rattus norvegicus [12]): 23%
Activity (Rattus norvegicus [7]): inactive
Activity (Cavia porcellus [13]): inactive
inhibition in vivo at 50 mg/kg (Rattus norvegicus [14]): 44%
inhibition in vivo at 25 mg/kg (Rattus norvegicus [15]): 10%
inhibition in vivo at 25 mg/kg (Rattus norvegicus [16]): 35%
inhibition in vivo at 100 mg/kg (Rattus norvegicus [17]): 27%

N#CCC(=O)c1cccs1
inhibition in vivo at 200 mg/kg (Rattus norvegicus [19]): 72%
inhibition in vivo at 100 mg/kg (Rattus norvegicus [10]): 58%
Activity (Rattus norvegicus [11]): Non-toxic
inhibition in vivo at 50 mg/kg (Rattus norvegicus [12]): 18%
Activity (Rattus norvegicus [7]): inactive
Activity (Cavia porcellus [13]): inactive
inhibition in vivo at 50 mg/kg (Rattus norvegicus [14]): 46%
inhibition in vivo at 200 mg/kg (Rattus norvegicus [20]): 29%
inhibition in vivo at 100 mg/kg (Rattus norvegicus [17]): 42%

N#C/C=C(\N)c1ccsc1
inhibition in vivo at 100 mg/kg (Rattus norvegicus [10]): 58%
Activity (Rattus norvegicus [11]): Non-toxic
inhibition in vivo at 50 mg/kg (Rattus norvegicus [12]): 27%
Activity (Rattus norvegicus [7]): inactive
Activity (Cavia porcellus [13]): inactive
inhibition in vivo at 50 mg/kg (Rattus norvegicus [14]): 48%
inhibition in vivo at 25 mg/kg (Rattus norvegicus [15]): 20%
inhibition in vivo at 25 mg/kg (Rattus norvegicus [16]): 37%
inhibition in vivo at 100 mg/kg (Rattus norvegicus [17]): 33%

N#CCC(=O)c1cccc(F)c1
Activity (Rattus norvegicus [8]): Active
